Test results as given in patent US20080182859A1 (Curis, Inc., priority 2006, published 2008).
Counter-ions that a name gives are not always drawn.

Key:
Format in all cases: cell-based
[1] = tested on: sonic hedgehog pathway; experiment: Hedgehog pathway Gli-luciferase reporter assay, TM3 cells; conditions: TM3 mouse Leydig cells
How it was run: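 Luminescence read-out of gli-promoter luciferase in stably transfected cells; 11-point 1:3 dose curves, 24 h compound exposure in 0.5% FBS, ± octyl-modified Hh protein 1–5 ng/ml. AMAX as % of plate low/high controls; EC50 from curve; >20% AMAX counted active.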

[2] = tested on: sonic hedgehog pathway; experiment: Hedgehog pathway Gli-luciferase reporter assay, S12 cells; conditions: S12 mouse embryonic mesenchymal cells, read-out: S12 Avg. EC50
Source text: Mouse (TM3: mouse Leydig cells; S12: mouse embryonic mesenchymal cells) and human (Daoy: human medulloblastoma cell; HepM: human embryonic palatal mesenchymal cell) cell lines are used to screen small molecules for their ability to modulate the activity of the sonic hedgehog pathway (Table 1, Table 2, and Table 3). Stable hedgehog pathway reporter cell lines are established by specific antibiotic selection following transfection of a reporter plasmid containing a luciferase gene located directly downstream from the gli promoter. Consequently, any observable changes in cellular luciferase activity may be attributed to changes in sonic hedgehog pathway activity in mouse and human cells, respectively, since gli is the major by-product of this pathway. To calculate activity, we generate an eleven point dose curve for each compound using 1:3 dilutions in 96 well assay plates. Each plate tested also contains low and high control to establish maximal pathway activation so to establish/compare a percentage activation of each tested compound (AMAX) on respective plates. Also we calculate EC50 values, or a concentration where the pathway will be exactly 50% activated, for each tested compound to determine potency. In these cell lines, compounds that register >20% AMAX values are considered active.
Stable hedgehog pathway reporter cell lines are established following specific antibiotic selection following transfection of a reporter plasmid In short, typically cells are plated in MicroTiter-plates at 10,000-20,000 cells per well, in growth media (containing 10%-20% FBS). After 48-72 hrs (HGL and DGL respectively) the media in the assay plates is switched to low-serum containing media (0.5% FBS). At that time compounds are added (at 1-5 μM) to the assay plates, in the presence or absence of hedgehog protein (octyl-modified version; 1-5 ng/ml). After another 24 hrs of incubation, the media from the assay plates is discarded and replaced with luciferase assay-mix. Subsequently, plates are incubated at RT for ˜15-30 mins and then read in a luminometer. [note: addition of the Hedgehog protein, although not critical, will sensitize the assay allowing the identification of weak actives].

[3] = tested on: sonic hedgehog pathway; experiment: Human hedgehog reporter assay HEPM-GliLuc (HGL); conditions: HepM human embryonic palatal mesenchymal cells, Gli-luciferase reporter
How it was run: (§1)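 Reporter cells stably selected after gli-luciferase plasmid transfection; test article dosed over 11 points (1:3). Read as luminescence after 24 h treatment in 0.5% serum; activity >20% AMAX versus plate controls deemed active.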

[4] = tested on: sonic hedgehog pathway; experiment: Human hedgehog reporter assay Daoy-GliLuc (DGL); conditions: Daoy human medulloblastoma cells, Gli-luciferase reporter; read-out: Daoy Avg. EC50
How it was run: as §1

Compound	EC50 [1]	EC50 [4]	EC50 [2]	EC50 [3]
CN[C@H]1CC[C@@H](N(Cc2cc(-c3ccc(C(=O)N(C)C)cc3)ccc2OC)C(=O)c2sc3ccccc3c2Cl)CC1 [317 (R19)]	< 50 nM	–	< 50 nM	< 50 nM
CN[C@H]1CC[C@@H](N(Cc2cc(-c3ccnc(C(N)=O)c3)ccc2OC)C(=O)c2sc3c(F)ccc(F)c3c2Cl)CC1 [354 (R17)]	< 50 nM	< 50 nM	< 50 nM	< 50 nM
CN[C@H]1CC[C@@H](N(Cc2cc(-c3cccnc3)ccc2OC)C(=O)c2sc3cccc(F)c3c2Cl)CC1 [360 (R16), 3-Chloro-4-fluoro-benzo[b]thiophene-2-carboxylic acid (2-methoxy-5-pyridin-3-yl-benzyl)-(4-methylamino-cyclohexyl)-amide dihydrochloride]	< 50 nM	< 50 nM	< 50 nM	< 50 nM
CN[C@H]1CC[C@@H](N(Cc2cc(-c3ccc(N)nc3)ccc2OC)C(=O)c2sc3cccc(F)c3c2Cl)CC1 [362 (R13), 3-Chloro-4-fluoro-benzo[b]thiophene-2-carboxylic acid [5-(6-amino-pyridin-3-yl)-2-methoxy-benzyl]-(4-methylamino-cyclohexyl)-amide dihydrochloride]	< 50 nM	< 50 nM	< 50 nM	< 50 nM
CN[C@H]1CC[C@@H](N(Cc2cc(-c3ccc(C(C)=O)cc3)ccc2OC)C(=O)c2sc3ccccc3c2Cl)CC1 [Compound 303, 3-Chloro-benzo[b]thiophene-2-carboxylic acid (4′-acetyl-4-methoxy-biphenyl-3-ylmethyl)-(4-methylamino-cyclohexyl)-amide hydrochloride]	< 50 nM	< 50 nM	< 50 nM	< 50 nM
CN[C@H]1CC[C@@H](N(Cc2cc(-c3ccc(C(N)=O)cc3)ccc2OC)C(=O)c2sc3ccccc3c2Cl)CC1 [Compound 316, 3-Chloro-benzo[b]thiophene-2-carboxylic acid (4′-carbamoyl-4-methoxy-biphenyl-3-ylmethyl)-(4-methylamino-cyclohexyl)-amide hydrochloride]	< 50 nM	–	< 50 nM	< 50 nM
CN[C@H]1CC[C@@H](N(Cc2cc(-c3ccc(N)nc3)ccc2OC)C(=O)c2sc3ccccc3c2Cl)CC1 [Compound 319, 3-Chloro-benzo[b]thiophene-2-carboxylic acid [5-(6-amino-pyridin-3-yl)-2-methoxy-benzyl]-(4-methylamino-cyclohexyl)-amide dihydrochloride]	< 50 nM	–	< 50 nM	< 50 nM
CN[C@H]1CC[C@@H](N(Cc2cc(-c3ccc(CO)cc3)ccc2OC)C(=O)c2sc3ccccc3c2Cl)CC1 [Compound 329, 3-Chloro-benzo[b]thiophene-2-carboxylic acid (4′-hydroxymethyl-4-methoxy-biphenyl-3-ylmethyl)-(4-methylamino-cyclohexyl)-amide hydrochloride]	< 50 nM	–	< 50 nM	< 50 nM
CN[C@H]1CC[C@@H](N(Cc2cc(-c3ccc(C(N)=O)cc3)ccc2OC)C(=O)c2sc3cccc(F)c3c2Cl)CC1 [Compound 346, 3-Chloro-4-fluoro-benzo[b]thiophene-2-carboxylic acid (4′-carbamoyl-4-methoxy-biphenyl-3-ylmethyl)-(4-methylamino-cyclohexyl)-amide hydrochloride]	< 50 nM	< 50 nM	< 50 nM	< 50 nM
CN[C@H]1CC[C@@H](N(Cc2cc(-c3ccnc(C)c3)ccc2OC)C(=O)c2sc3cccc(F)c3c2Cl)CC1 [Compound 348, 3-Chloro-4-fluoro-benzo[b]thiophene-2-carboxylic acid [2-methoxy-5-(2-methyl-pyridin-4-yl)-benzyl]-(4-methylamino-cyclohexyl)-amide bis(trifluoroacetate)]	< 50 nM	< 50 nM	< 50 nM	< 50 nM
CN[C@H]1CC[C@@H](N(Cc2cc(-c3ccnc(N)c3)ccc2OC)C(=O)c2sc3c(F)ccc(F)c3c2Cl)CC1 [Compound 355]	< 50 nM	–	< 50 nM	< 50 nM
CN[C@H]1CC[C@@H](N(Cc2cc(-c3ccc(NS(C)(=O)=O)nc3)ccc2OC)C(=O)c2sc3c(F)ccc(F)c3c2Cl)CC1 [Compound R10, 3-Chloro-4,7-difluoro-benzo[b]thiophene-2-carboxylic acid [5-(6-methanesulfonylamino-pyridin-3-yl)-2-methoxy-benzyl]-(4-methylamino-cyclohexyl)-amide dihydrochloride]	< 50 nM	–	< 50 nM	< 50 nM

Now from value to compound, other results behind:

EC50 [1]	EC50 [4]	Compound	EC50 [2]	EC50 [3]
< 50 nM	< 50 nM	CN[C@H]1CC[C@@H](N(Cc2cc(-c3ccc(C(C)=O)cc3)ccc2OC)C(=O)c2sc3c(F)ccc(F)c3c2Cl)CC1 [Compound 332, 3-Chloro-4,7-difluoro-benzo[b]thiophene-2-carboxylic acid (4′-acetyl-4-methoxy-biphenyl-3-ylmethyl)-(4-methylamino-cyclohexyl)-amide hydrochloride]	< 50 nM	< 50 nM
< 50 nM	< 50 nM	CN[C@H]1CC[C@@H](N(Cc2cc(-c3ccc(C(=O)N(C)C)cc3)ccc2OC)C(=O)c2sc3c(F)ccc(F)c3c2Cl)CC1 [Compound 333, 3-Chloro-4,7-difluoro-benzo[b]thiophene-2-carboxylic acid (4′-dimethylcarbamoyl-4-methoxy-biphenyl-3-ylmethyl)-(4-methylamino-cyclohexyl)-amide hydrochloride]	< 50 nM	< 50 nM
< 50 nM	< 50 nM	CN[C@H]1CC[C@@H](N(Cc2cc(-c3ccc(C)nc3)ccc2OC)C(=O)c2sc3c(F)ccc(F)c3c2Cl)CC1 [Compound 334, 3-Chloro-4,7-difluoro-benzo[b]thiophene-2-carboxylic acid [2-methoxy-5-(6-methyl-pyridin-3-yl)-benzyl]-(4-methylamino-cyclohexyl)-amide bis(trifluoroacetate)]	< 50 nM	< 50 nM
< 50 nM	< 50 nM	CN[C@H]1CC[C@@H](N(Cc2cc(-c3ccc(S(C)(=O)=O)cc3)ccc2OC)C(=O)c2sc3c(F)ccc(F)c3c2Cl)CC1 [Compound 335, 3-Chloro-4,7-difluoro-benzo[b]thiophene-2-carboxylic acid (4′-methanesulfonyl-4-methoxy-biphenyl-3-ylmethyl)-(4-methylamino-cyclohexyl)-amide hydrochloride]	< 50 nM	< 50 nM
< 50 nM	< 50 nM	CN[C@H]1CC[C@@H](N(Cc2cc(-c3ccc(N(C)C(C)=O)cc3)ccc2OC)C(=O)c2sc3c(F)ccc(F)c3c2Cl)CC1 [Compound 336, 3-Chloro-4,7-difluoro-benzo[b]thiophene-2-carboxylic acid [4′-(acetyl-methyl-amino)-4-methoxy-biphenyl-3-ylmethyl]-(4-methylamino-cyclohexyl)-amide hydrochloride]	< 50 nM	< 50 nM
< 50 nM	< 50 nM	CN[C@H]1CC[C@@H](N(Cc2cc(-c3ccc(CO)cc3)ccc2OC)C(=O)c2sc3c(F)ccc(F)c3c2Cl)CC1 [Compound 338, 3-Chloro-4,7-difluoro-benzo[b]thiophene-2-carboxylic acid (4′-hydroxymethyl-4-methoxy-biphenyl-3-ylmethyl)-(4-methylamino-cyclohexyl)-amide trifluoroacetate]	< 50 nM	< 50 nM
< 50 nM	< 50 nM	CN[C@H]1CC[C@@H](N(Cc2cc(-c3ccncc3)ccc2OC)C(=O)c2sc3c(F)ccc(F)c3c2Cl)CC1 [Compound 342, 3-Chloro-4,7-difluoro-benzo[b]thiophene-2-carboxylic acid (2-methoxy-5-pyridin-4-yl-benzyl)-(4-methylamino-cyclohexyl)-amide dihydrochloride]	< 50 nM	< 50 nM
